# Test results as given in patent US20190030114A1, “ISOFORM-SPECIFIC CALPAIN INHIBITORS, METHODS OF IDENTIFICATION, AND USES THEREOF” (WESTERN UNIVERSITY OF HEALTH SCIENCES, priority 2014, published 2019).
# Legend:
# [1] = test system: cortical neuronal cultures (14 DIV); assay: neuronal death mediated by extrasynaptic NMDA receptor activation; type: cell-based; settings: dose-dependent from 200 nM to 5 μM
# Protocol: Results are expressed as percent of neurons positively stained with the Hoechst reagent and are means±S.E.M. of 3-4 experiments (*p<0.01, Student's t-test).
# A selective calpain-2 inhibitor blocks neuronal death mediated by extrasynaptic NMDA receptor activation. Cortical neuronal cultures (14 DIV) were treated to induce selective activation of extrasynaptic NMDA receptors, which results in neuronal cell death.
# retina (GCL, IPL, RGC) = assay: acute IOP elevation (acute angle closure glaucoma model), systemic (i.p.) C2l; type: in vivo, mice
# Protocol: FIG. 11A: Calpain-2 inhibition reduces, while calpain-1 knockout exacerbates, cell death in the ganglion cell layer induced by acute IOP elevation. H&E staining of retinal sections from the right eye of vehicle- or C2l-injected wild-type and calpain-1 KO mice and the left eye where sham surgery was performed. Vehicle, 10% DMSO in PBS, was injected i.p. 30 min before and 2 h after acute IOP elevation. Pre- and post-injection C2l (0.3 mg/kg) was done i.p. 30 min before and 2 h after acute IOP elevation. For the One post injection group, C2l was injected 2 h after IOP elevation. For the Two post inj group, C2l was injected 2 and 4 h after IOP elevation. H&E staining was performed 3 days after surgery. Scale bar=30 μm.
# Six sections cut through the optic disc of each eye were analyzed. Cell numbers in GCL at a distance between […] the optic disc were counted. Cell densities in 6 sections from each eye were averaged. Data represent means±S.E.M. n=7 for vehicle, n=3 for pre and post inj, n=10 for one post inj, n=6 for two post inj, n=4 for KO. ns, no significant difference. ***p<0.001, Two-tailed t-test.
# FIG. 11C: Comparison of GCL cell survival rates from the right eye of vehicle- or C2l-injected wild-type and calpain-1 KO mice and the left eye where sham surgery was performed, as described in FIG. 11A. Survival rate for each mouse was calculated as the ratio of cell density in GCL of IOP-elevated eye to cell density in GCL of sham eye. *p<0.05, **p<0.01 versus vehicle, One-way ANOVA followed by Bonferroni test.
# FIG. 11D: Brn-3a immunostaining in the retina of vehicle- or C2l-injected WT mice. Acute IOP elevation was performed on the right eye, while sham surgery was performed on the left eye. Vehicle, 10% DMSO, or C2l, C2l (0.3 mg/kg) was injected i.p. 2 h after acute IOP elevation. Brn3a staining was performed 3 days after surgery. Scale bar=60 μm.
# FIG. 11E: Quantification of brn3a staining, as described in FIG. 11D. Brn3a-positive cells in GCL were counted. Data represents mean±S.E.M. n=4 for vehicle, n=5 for C2l. Ns, no significant difference, **p<0.01 sham versus IOP elevation, two-tailed t-test.
# FIG. 11F: Comparison of survival rates. n=4 for vehicle, n=5 for C2l. **p<0.01 vehicle versus C2l, two-tailed t-test.
# FIG. 11G: Representative immunoblots of PHLPP1 and STEP33 in retina tissue of WT, calpain-1 KO and C2l-injected mice collected 3 h after sham surgery or acute IOP elevation. C2l (0.3 mg/kg) was injected systemically 2 h after sham surgery or IOP elevation.
# FIG. 11H: Quantitative analysis of the levels of PHLPP1 and STEP33 and ratios of pAkt/Akt for each group. Results represent means±S.E.M. of 4 experiments. *p<0.05, **p<0.01, ***p<0.001, ns no significant difference, One-way ANOVA followed by Bonferroni test.
# Sequential activation of calpain-1 and calpain-2 in retina after acute IOP elevation. The following IOP elevation studies were performed using a model of acute angle closure glaucoma consisting of increasing intraocular pressure (IOP) to 110 mm Hg for 60 min by inserting a needle connected to an elevated reservoir of saline into the anterior chamber. This model reproduced several features of acute angle closure, including, ischemia of retina and iris as noted by absence of red reflex and pupillary response to light. Anterior chamber synechae, resulting in a narrow angle and adhesions between the iris and the cornea, increased cells and flare in the anterior chamber and increased corneal thickness due to corneal edema. Some of these changes persisted over 3 days of observation. Eyes were collected at 0, 2, 4 and 6 h after IOP elevation and retinal frozen sections were prepared and processed for immunohistochemistry with SBDP antibody. In WT mice, SBDP was clearly present in IPL at 2, 4 and 6 h after IOP elevation. However in calpain-1 KO mice, SBDP was only evident in the IPL at 4 and 6 h but not at 2 h (FIG. 10A and C). […]
# [2] = test system: stratum radiatum of field CA1 in acute rat hippocampal slices; assay: field EPSP recording, TBS-induced LTP in acute rat hippocampal slices; type: cell-based; settings: for LTP after theta-burst stimulation: 200 nM, preincubation prior to TBS
# Protocol: Results are expressed as percent of the average values over a 10 min baseline period and are means±S.E.M. of the indicated number of experiments.
# (§1) FIG. 3A: Field recording of excitatory postsynaptic potentials (EPSPs) performed in stratum radiatum of field CA1 in acute rat hippocampal slices in the presence or absence of 200 nM of the calpain-2 selective inhibitor, Formula I, (mCalp-I in the drawing). Preincubation with mCalp-I enhances LTP. Results are expressed as percent of the average values over a 10 min baseline period and are means±S.E.M. of the indicated number of experiments.
# Results are expressed as percent of the average values over the 10 min baseline period and are means±S.E.M. of the indicated number of experiments.
# Generic calpain inhibitors block LTP when administered before LTP induction. Field recording of excitatory postsynaptic potentials (EPSPs; FIG. 2) was performed in stratum radiatum of field CA1 in acute rat hippocampal slices.
# A calpain 2-selective inhibitor enhances LTP. […]
# [3] = test system: field CA1 in acute hippocampal slices from male UBEA mutant mice; assay: field EPSP recording, LTP in hippocampal slices from UBEA mutant mice (Angelman Syndrome model); type: cell-based; settings: 200 nM
# Protocol: as §1, with “4:” for “3A:”, “acute” for “acute rat”, “slices prepared from male UBEA mutant mice (a model of Angelman Syndrome) or their wild-type littermates” for “slices”, “I” for “I,”, “drawing).” for “drawing). Preincubation with mCalp-I enhances LTP.”
# A calpain 2-specific inhibitor rescues LTP impairment in hippocampal slices from a mouse model of Angelman Syndrome. Field recording of excitatory postsynaptic potentials (EPSPs) was performed in stratum radiatum of field CA1 in acute hippocampal slices prepared from male UBEA mutant mice or their wild-type littermates.
# [4] = 0.3 mg/kg i.p. 30 min before and 2 h after IOP elevation (pre and post inj), 3 days, n=3
# [5] = i.p. 2 and 4 h after IOP elevation (two post inj), n=6
# [6] = i.p. 2 h after IOP elevation (one post inj), n=10
compound,measurement,setting,value
"CCC(NC(=O)C(CC(C)C)NC(=O)OCc1ccccc1)C(=O)C(=O)NCc1cc(OC)cc(OC)c1 (racemic) [Formula 1, Z-Leu-Abu-CONH—CH2-C6H3 (3, 5-(OMe)2)]",neuronal cell death associated with extrasynaptic NMDA receptor activation,[1],reduced the neuronal cell death
same,neuronal cell death associated with extrasynaptic NMDA receptor activation,[1]; listed as Formula I,reduced neuronal cell death
same,"cell counts in GCL, IOP-elevated eye","retina (GCL, IPL, RGC); [4]",105.8±4.5 cells/mm
same,"cell counts in GCL, sham eye","retina (GCL, IPL, RGC); [4]",125.1±10.5 cells/mm
same,SBDP signal in IPL at 4 and 6 h,"retina (GCL, IPL, RGC); 0.3 mg/kg i.p. 2 h after IOP elevation, WT mice",significantly reduced
same,cell survival rate (cell count in IOP-elevated eye to sham eye) versus vehicle,"retina (GCL, IPL, RGC); all three C2l injected groups",significantly increased
same,"cell counts in GCL, IOP-elevated eye","retina (GCL, IPL, RGC); [5]",96.1±6.3 cells/mm
same,"cell counts in GCL, sham eye","retina (GCL, IPL, RGC); [5]",118.6±3.7 cells/mm
same,"cell counts in GCL, IOP-elevated eye","retina (GCL, IPL, RGC); [6]",86.4±7.0 cells/mm
same,"cell counts in GCL, sham eye","retina (GCL, IPL, RGC); [6]",110.6±3.6 cells/mm
same,PTEN degradation at 4 and 6 h,"retina (GCL, IPL, RGC); injected 2 h after IOP elevation, WT mice",completely blocked
same,LTP after theta-burst stimulation,[2],enhances it
same,LTP after theta-burst stimulation,[2]; listed as mCalp-I,enhances LTP
same,LTP during the consolidation phase,[2]; applied from 10 min post TBS to 1 hour post TBS,enhanced LTP
same,LTP magnitude in slices from UBEA mutant mice,[3],restored LTP magnitude to the level found in slices from wild-type mice
same,initial increase in fEPSP elicited by TBS,[3],no effect
